Experimental data from US6399654B1, “Biflavanoids and derivatives thereof as antiviral agents” (priority 1995, dated 2002).
Values after ≈ are worked out from the molar mass of the structure shown. Values joined by “and” are separate entries in the source; they are usually repeats but may differ in a detail not shown here. Identical values can stand only once. Like-named read-outs stand apart in the source and are kept apart here. Marks after values point to notes of the source that are not given here.

Tests used:
[1] = tested on: Influenza A (H1N1) Texas/36/91; experiment: microbe, parasite or virus in culture; format: cell-based, influenza A virus; settings: Influenza A virus, read-out: CPE Inhibition EC50
[2] = tested on: Influenza A (H1N1) Texas/36/91; experiment: microbe, parasite or virus in culture; format: cell-based, influenza A virus; settings: Influenza A virus, read-out: Neutral Red EC50
[3] = tested on: Influenza A (H3N2) Beijing/32/92; experiment: microbe, parasite or virus in culture; format: cell-based, influenza A virus; settings: Influenza A virus, read-out: CPE Inhibition EC50
[4] = tested on: Influenza A (H3N2) Beijing/32/92; experiment: microbe, parasite or virus in culture; format: cell-based, influenza A virus; settings: Influenza A virus, read-out: Neutral Red EC50
[5] = tested on: Influenza B Panama/45/90; experiment: microbe, parasite or virus in culture; format: cell-based; settings: Influenza B virus, MDCK, read-out: CPE Inhibition EC50
[6] = tested on: Influenza B Panama/45/90; experiment: microbe, parasite or virus in culture; format: cell-based; settings: Influenza B virus, MDCK, read-out: Neutral Red EC50
[7] = tested on: Measles Virus; experiment: microbe, parasite or virus in culture; format: cell-based; settings: Measles morbillivirus
[8] = tested on: Measles Virus; experiment: Measles virus neutral red dye uptake in BSC-1 cells; format: cell-based; settings: Measles morbillivirus, BSC-1
[9] = tested on: Parainfluenza Type 3 Virus; experiment: organism not typed; format: cell-based
[10] = tested on: Parainfluenza Type 3 Virus; experiment: organism not typed; format: cell-based; settings: MA104, read-out: Neutral Red EC50
[11] = tested on: Respiratory Syncytial Virus; experiment: microbe, parasite or virus in culture; format: cell-based; settings: human respiratory syncytial virus, MA104, read-out: CPE Inhibition EC50
[12] = tested on: Respiratory Syncytial Virus; experiment: microbe, parasite or virus in culture; format: cell-based; settings: human respiratory syncytial virus, MA104; read-out: Neutral Red EC50
[13] = tested on: Influenza A (A/NWS/33 (H1N1)); experiment: Influenza A virus infection in mice; format: in vivo, BALB/c mice
Procedure: Animals: Female 13-15 g specific pathogen-free BALB/c mice were obtained form Simonsen Laboratories (Gilroy, Calif.). They were quarantined 24 h prior to use, and maintained on Wayne Lab Blox and tap water. After being infected, their drinking water contained 0.006% oxytetracycline (Pfizer, New York, N.Y.) to control possible secondary bacterial infections.
Virus: A/NWS/33 (H1N1) was obtained from K. W. Cochran, Univ. of Michigan (Ann Arbor, Mich.). A virus pool was prepared in MDCK cells; this was titrated in mice, ampuled, and stored at −80° C. until used.
Compounds: Robustaflavone was stored at room temperature until used. Ribavirin, used as a positive control, was obtained from ICN Pharmaceuticals (Costa Mesa, Calif.). Vehicles considered included DMSO (Sigma Chemical Co., St. Louis, Mo.), DMF (Sigma), PEG M. W. 200 (Aldrich Chemical Co. Milwaukee, Wis.), 0.4% CMC (Sigma) and 1-methyl-2-pyrrolidinone (MPD, Aldrich).
Arterial Oxygen Saturation (SaO2) Determinations: SaO2 was determined using the Ohmeda Blox 3740 pulse oximeter (Ohmeda, Louisville, Ohio)). The ear probe attachment was used, the probe placed on the thigh of the animal, with the slow instrument mode selected. Readings were made after a 30 second stabilization time on each animal. Use of this device for measuring effects of influenza virus on arterial oxygen saturation have been described.^72
Lung Virus Determinations: Each mouse lung was homogenized and varying dilutions assayed in triplicate for infectious virus in MDCK cells as described previously.^73
4. Effect of robustaflavone in CMC or in DMSO on influenza virus infection in mice. In the study with CMC, robustaflavone was used in dosages of 200 and 100 mg/kg/day; using DMSO vehicle, the dosages were 75 and 37.5 mg/kg/day, with the compound administered i.p. twice daily for 5 days beginning 4 h pre-virus exposure. The mice were used in each dose to monitor effects on SaO2 and death; from an additional group of similarly infected and treated mice, 3 animals were killed on days 3, 5, 7 and 9 to assay for lung score (0=normal, 4=maximal consolidation), weight, and virus titer. Three to four mice were used as toxicity controls, which were weighed prior to treatment and again 18 h after treatment termination, and deaths noted daily. […] Three sets of virus controls were used: Infected-untreated, infected-treated with CMC only, and infected-treated with DMSO only. Twenty animals were used in each of these control groups to monitor SaO2 and death, with 3 additional mice taken in parallel with treated animals to determine effects on lung consolidation and virus titer. Two sets of normal controls were used; one group of three mice was weighed and held in parallel with the toxicity controls. From the second group three mice were killed on days 3 and 9 for comparison of lung score and weight.
Statistical Evaluation: Increase in survivor number was evaluated using chi square analysis with Yates' correction. Mean survival time increases, virus titer and SaO2 value differences were analyzed by t-test. Lung consolidation scores were evaluated by ranked sum analysis.

[14] = tested on: Madin Darby canine kidney (MDCK) cells; settings: dog
[15] = in vitro; settings: dog
[16] = in vitro; settings: African green monkey
[17] = in vitro; settings: African green monkey; remark: listed apart in the source
[18] = in vitro; settings: African green monkey; remark: listed apart in the source
[19] = tested on: Adenovirus Type 5; experiment: microbe, parasite or virus in culture; format: cell-based; settings: Human mastadenovirus C, A549, read-out: CPE Inhibition EC50
[20] = tested on: Adenovirus Type 5; experiment: Adenovirus type 5 neutral red dye uptake in A549 cells; format: cell-based; settings: Human mastadenovirus C, A549, read-out: Neutral Red EC50
[21] = molecular target: T1, HIV-1 RT (Human immunodeficiency virus type 1 group M subtype B, UniProt P03366); experiment: Anti-HIV-1 RT assay (recombinant enzyme); format: biochemical
T1 construct: made in house; host or cells: Escherichia coli

[22] = tested on: HIV-1 (strain LAV-1); experiment: microbe, parasite or virus in culture; format: cell-based
[23] = tested on: African green monkey kidney (MA-104) cells
[24] = tested on: human PBM cells
[25] = in vitro; settings: dog, Neutral Red IC50 (cytotoxic)
[26] = in vitro; settings: African green monkey, Neutral Red IC50 (cytotoxic)
[27] = in vitro; settings: human
[28] = in vitro; settings: human; remark: listed apart in the source
[29] = tested on: HCMV; experiment: HCMV CPE inhibition in HFF cells
[30] = tested on: HSV-1; experiment: HSV-1 CPE inhibition in HFF cells
[31] = tested on: HSV-2; experiment: HSV-2 CPE inhibition in HFF cells
[32] = tested on: VZV; experiment: VZV plaque reduction assay in HFF cells
[33] = tested on: Hepatitis B Virus (HBV); experiment: Inhibition of HBV replication in 2.2.15 cells, extracellular (virion) HBV DNA; settings: Hepatitis B virus, 216 h;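 also: extracellular virion HBV DNA in culture medium measured by slot blot hybridization with a 32P-labeled HBV probe, quantified against HBV DNA standards, after 9 days of daily dosing, compared with day 0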
Procedure: Test compounds were added daily for a nine continuous day period; the culture medium was collected and stored for analysis of extracellular (virion) HBV DNA after 0, 3, 6, and 9 days of treatment. The treated cells were lysed 24 hours following day 9 of treatment for the analysis of intracellular HBV genomic forms. The overall levels of HBV DNA (both extracellular and intracellular DNA) and the relative rate of HBV replication (intracellular DNA) were analyzed quantitatively. The analysis was performed using blot hybridization techniques and [^32P]-labeled HBV-specific probes. The HBV DNA levels were measured by comparison to known amounts of HBV DNA standards applied to every nitrocellulose membrane (gel or slot blot). An AMBIS beta scanner, which measures the radioactive decay of the hybridized probes directly from the nitrocellulose membranes, was used for the quantitative analysis. Standard curves, generated by multiple analyses, were used to correlate CPM measurements made by the beta scanner with relative levels of target HBV DNA. The levels of HBV virion DNA released into the culture medium were analyzed by a slot blot hybridization procedure. HBV DNA levels were then compared to those at day 0 to determine the effect of the test compound. A known positive drug was evaluated in parallel with test compounds in each test.
Determination of therapeutic concentrations (EC50 and EC90) and toxicity concentrations (IC50) were determined as previously described (90). Stock solutions of text drugs were prepared in DMSO. Culture medium was changed daily and analyzed for extracellular HBV DNA after nine days of continuous drug exposure. Extracellular HBV DNA was extracted from the culture media and analyzed by a slot blot hydridization technique, using a ^32P-labeled Eco RI HBV DNA fragment, as previously described (91), and quantitated via comparison to HBV standards on a nitrocellulose filter, using an AMBIS beta scanner. Toxicity was determined by measuring inhibition of neutral red dye uptake. […] Effective concentration values for individual agents are the mean of six cultures per concentration point. Toxicity values are the mean of three cultures per concentration point.

[34] = ribavirin in saline, 75 mg/kg/day i.p. bid × 5
[35] = CPE Inhibition IC50 (cytotoxic)
[36] = MDCK, Influenza A (H1N1) Texas/36/91
[37] = MDCK, Influenza A (H3N2) Beijing/32/92

NC(=O)c1ncn([C@@H]2O[C@H](CO)[C@@H](O)[C@H]2O)n1 [Ribavirin, ribavirin, reference compound]
EC50 ([1]; H1N1, MDCK): 1.9 µg/mL (≈ 7.78 µM) | EC50 ([2]; H1N1, MDCK): 1.4 µg/mL (≈ 5.73 µM) | EC50 ([3]; H3N2, MDCK): 4.1 µg/mL (≈ 16.8 µM) | EC50 ([4]; H3N2, MDCK): 5.7 µg/mL (≈ 23.3 µM) | EC50 ([5]; Influenza B Panama/45/90): 1.5 µg/mL (≈ 6.14 µM) | EC50 [6]: 0.48 µg/mL (≈ 1.97 µM) | EC50 ([7]; BSC-1, read-out: CPI Inhibition EC50): 3 µg/mL (≈ 12.3 µM) | EC50 [8]: 1 µg/mL (≈ 4.09 µM) | EC50 ([9]; MA104, read-out: CPI Inhibition EC50): 25 µg/mL (≈ 102 µM) | EC50 [10]: 17 µg/mL (≈ 69.6 µM) | EC50 [11]: 12 µg/mL (≈ 49.1 µM) | EC50 [12]: 6 µg/mL (≈ 24.6 µM) | inhibition of the infection, in words ([13]; ribavirin 75 mg/kg/day, positive control): highly active | Infected, Treated MST [13, 34]: >21.0** days | Infected, Treated Mean SaO2 [13, 34]: 87.1** % | Infected, Treated Surv/Total [13, 34]: 10/10** | CPE Inhibition IC50 (cytotoxic) [14]: >1000 µg/mL | IC50 ([15]; CPE Inhibition IC50 (50% cell inhibitory (cytotoxic) concentration)): 562 µg/mL (≈ 2300 µM) | IC50 [15, 35]: 562 µg/mL (≈ 2300 µM) | IC50 [16]: 150 µg/mL (≈ 614 µM) | IC50 [17]: 150 µg/mL (≈ 614 µM) | IC50 [18, 35]: 120 µg/mL (≈ 491 µM) | IC50 ([18]; CPI Inhibition IC50 (cytotoxic)): 245 µg/mL (≈ 1000 µM)

O=c1cc(-c2ccc(Oc3c(O)cc4oc(-c5ccc(O)cc5)cc(=O)c4c3O)cc2)oc2cc(O)cc(O)c12 [Hinokiflavone (4), hinokiflavone]
EC50 [1, 36]: > 1 µg/mL | EC50 [2, 36]: 1.8 µg/mL (≈ 3.34 µM) | EC50 [3, 37]: > 3.2 µg/mL | EC50 [4, 37]: 1.9 µg/mL (≈ 3.53 µM) | EC50 [5]: > 1 µg/mL | EC50 [6]: 1.9 µg/mL (≈ 3.53 µM) | EC50 ([7]; BSC-1, Measles Virus, read-out: CPI Inhibition EC50): < 3 µg/mL | EC50 [8]: < 5 µg/mL | EC50 [19]: > 10 µg/mL | EC50 [20]: 19 µg/mL (≈ 35.3 µM) | EC50 ([9]; MA104, Parainfluenza Type 3 Virus, read-out: CPI Inhibition EC50): > 1 µg/mL | EC50 [10]: 5 µg/mL (≈ 9.29 µM) | EC50 [12]: > 3.2 µg/mL | IC50 ([21]; Anti-HIV-1 RT IC50, values in parentheses or in words): 62 µM | IC50 ([21]; HIV-1 RT IC50 (50% inhibition dose)): 65.4 µM and 62.6 µM | inhibition at 200 µg/mL ([21]; read-out: Anti-HIV-1 RT % Inhibition at 200 μg/ml): 89% | EC50 ([22]; Human immunodeficiency virus 1, PBMC, human PBM cells infected with HIV-1 (strain LAV), read-out: Ant-HIV-1 in PBM cells EC50): 4.1 µM | Selective Index (SI) ([22]; PBM cells): <1 | Neutral Red IC50 (cytotoxic) [23]: 7 µg/mL | toxicity against uninfected PHA-stimulated human PBM cells (in words) [24]: high toxicity | IC50 ([15]; CPE Inhibition IC50 (50% cell inhibitory (cytotoxic) concentration), Influenza A (H1N1) test): 1.4 µg/mL (≈ 2.6 µM) | IC50 ([15]; CPE Inhibition IC50 (cytotoxic), Influenza A (H3N2) test): 1.3 µg/mL (≈ 2.41 µM) | IC50 ([15]; CPE Inhibition IC50 (cytotoxic), Influenza B test): 1.2 µg/mL (≈ 2.23 µM) | IC50 ([25]; Influenza A (H1N1) test): 2 µg/mL (≈ 3.71 µM) | IC50 ([25]; Influenza A (H3N2) test): 2.2 µg/mL (≈ 4.09 µM) | IC50 ([25]; Influenza B test): 2 µg/mL (≈ 3.71 µM) | IC50 ([18]; CPE Inhibition IC50 (cytotoxic), Respiratory Syncytial Virus test): 2.5 µg/mL (≈ 4.64 µM) | IC50 ([18]; CPI Inhibition IC50 (cytotoxic), Parainfluenza Type 3 Virus test): 1 µg/mL (≈ 1.86 µM) | IC50 [26]: 6 µg/mL (≈ 11.1 µM) | IC50 [27]: 9.1 µM | CC50 at 14 days ([28]; HCMV CPE Inhibition CC50): 2.6 µg/mL (≈ 4.83 µM) | CC50 at 3 days ([28]; HSV-1 CPE Inhibition CC50): 77.7 µg/mL (≈ 144 µM) | CC50 at 3 days ([28]; HSV-2 CPE Inhibition CC50): 77.5 µg/mL (≈ 144 µM) | CC50 at 10 days ([28]; VZV Plaque Reduction CC50): 16.8 µg/mL (≈ 31.2 µM) | HCMV SI (CC50/EC50) ([29]; HFF Cells): <3.2 | EC50 ([29]; Human betaherpesvirus 5, HFF, read-out: HCMV CPE Inhibition EC50): > 0.8 µg/mL | HSV-1 SI (CC50/EC50) ([30]; HFF Cells): <3.9 | EC50 ([30]; Human alphaherpesvirus 1, HFF, read-out: HSV-1 CPE Inhibition EC50): > 20 µg/mL | HSV-2 SI (CC50/EC50) ([31]; HFF Cells): <319 | EC50 ([31]; Human alphaherpesvirus 2, HFF, read-out: HSV-2 CPE Inhibition EC50): > 20 µg/mL | VZV SI (CC50/EC50) ([32]; HFF Cells): <4.2 | EC50 ([32]; Human alphaherpesvirus 3, HFF, read-out: VZV Plaque Reduction EC50): > 4 µg/mL | EC50 ([33]; read-out: EC50 (50% effective dose), HBV Virion, 2.2.15 cells, extracellular (virion) HBV DNA, 9 days treatment): > 100 µM | EC90 ([33]; read-out: EC90 (90% effective dose), HBV Virion, 2.2.15 cells, extracellular (virion) HBV DNA, 9 days treatment): > 100 µM
